In article PMC6751662, “Pharmacological and functional similarities of the human neuropeptide Y system in C. elegans challenges phylogenetic views on the FLP/NPR system” (Cell Communication and Signaling : CCS, 2019):

Tests used:
Format in all cases: cell-based, C. elegans
NPR-3 = target: T1, NPR-3 (Caenorhabditis elegans, UniProt P90745); experiment: cAMP reporter gene assay, Gs (no forskolin), NPR-3; details: no forskolin, 4 h, transiently transfected HEK293, CRE-luciferase reporter, mean of >=3 independent experiments
T1 construct: expressed in transfected cells; host or cells: HEK293
T1 sequence (P90745 1-376): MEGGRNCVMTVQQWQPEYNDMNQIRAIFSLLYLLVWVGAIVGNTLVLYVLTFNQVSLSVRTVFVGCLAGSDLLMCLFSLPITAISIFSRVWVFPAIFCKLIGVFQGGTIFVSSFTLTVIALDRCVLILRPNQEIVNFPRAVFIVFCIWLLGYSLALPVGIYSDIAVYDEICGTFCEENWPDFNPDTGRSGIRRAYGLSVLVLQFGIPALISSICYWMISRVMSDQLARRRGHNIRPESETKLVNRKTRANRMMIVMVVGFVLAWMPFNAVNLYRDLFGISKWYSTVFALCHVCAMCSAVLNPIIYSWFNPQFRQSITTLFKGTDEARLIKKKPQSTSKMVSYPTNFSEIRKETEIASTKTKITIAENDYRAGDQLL
Description: Activation of Gs and Gi/o was assessed with a cAMP reporter gene assay. HEK293 cells grown to 70–80% confluency in 6-well plates were transiently co-transfected with vectors encoding the receptor and the cAMP reporter gene plasmid pGL4.29 [luc2P/CRE/Hygro] (Promega; 4 μg total, 1:1 ratio) using Metafectene Pro (3 μl/μg DNA; Biontex) following the manufacturer’s instructions. 16 h post transfection, the cells were seeded into white 384-well plates at a density of 20,000 cells/well. On the next day, the medium was removed and the cells were stimulated with 20 μl of peptide solution (or forskolin as positive control) in serum-free DMEM for 4 h. For measuring Gi/o activity, the peptide solutions additionally contained 1 μM forskolin to elevate cellular cAMP levels. After incubation, the luciferase substrate OneGlo in lysis buffer (Promega) was added and the luminescence was measured in a microplate reader Tecan Spark (Tecan). Data were analyzed with GraphPad Prism 5.03 and are shown as fold of basal or fold of forskolin in case of Gαi/o activity.
For in vitro activation, data is presented as mean ± SEM of at least three independent experiments conducted in technical triplicate. […] For the C. elegans NPRs, we considered the strongest response elicited by any of the peptides downstream of a particular receptor as the receptor’s maximal signal. This may or may not be the biological maximum that can be reached by the ‘true’ endogenous agonist. For the human receptors, the response to the established endogenous agonist reflected the maximal signal.

NPR-11 = target: T2, NPR-11 (Caenorhabditis elegans, UniProt Q18179); experiment: IP accumulation assay, co-transfected Gα16, NPR-11; details: 1 h, HBSS + 20 mM LiCl, HEK293 receptor + Gα16, HTRF IP-One, mean of >=3 independent experiments
T2 construct: expressed in transfected cells; host or cells: HEK293, transient
T2 sequence (Q18179 1-402): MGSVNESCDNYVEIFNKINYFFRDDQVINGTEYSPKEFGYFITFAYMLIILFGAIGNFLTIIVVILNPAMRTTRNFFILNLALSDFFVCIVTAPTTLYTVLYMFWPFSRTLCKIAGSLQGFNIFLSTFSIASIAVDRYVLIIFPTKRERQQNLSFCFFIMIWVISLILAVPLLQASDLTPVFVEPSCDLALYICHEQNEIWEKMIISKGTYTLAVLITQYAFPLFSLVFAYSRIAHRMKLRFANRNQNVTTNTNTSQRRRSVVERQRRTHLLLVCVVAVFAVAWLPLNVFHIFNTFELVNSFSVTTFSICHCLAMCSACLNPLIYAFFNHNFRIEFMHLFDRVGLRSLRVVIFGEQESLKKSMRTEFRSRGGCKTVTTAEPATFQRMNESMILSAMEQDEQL
Description: (§1) For measuring IP accumulation, HEK293 cells grown to 70–80% confluency in 6-well plates were transiently co-transfected using Metafectene Pro (2.5 μl/μg DNA; Biontex) with plasmids containing receptor and/or mock (empty pcDNA3.1) (for endogenous Gq-coupling) using 4 μg total DNA in a ratio of 3:1 following the manufacturer’s instructions. For testing Gα16- and GαΔ6qi4myr-coupling, plasmids encoding the corresponding Gα protein were co-transfected instead of mock. Gα16 is naturally promiscuous and stimulates the phospholipase C (PLC) pathway leading to IP production, while the exchange of the C-terminal four amino acids of Gαq for the corresponding residues of Gαi1 in the chimeric GαΔ6qi4myr confers the ability to couple to Gi/o protein-preferring receptors but still stimulate PLC, thus specifically redirecting downstream cellular signaling. 16 h post transfection, the cells were seeded into white 384-well plates at a density of 20,000 cells/well. Media was removed 24 h later and the cells were incubated with the indicated concentration of peptides for 1 h in HBSS + 20 mM LiCl. IP accumulation was measured with the HTRF-based IP-One Gq kit (Cisbio) on a microplate reader (Tecan Spark).
(§2) For in vitro activation, data is presented as mean ± SEM of at least three independent experiments conducted in technical triplicate. […]

NPR-1 = target: T3, NPR-1 (Caenorhabditis elegans, UniProt Q18534); experiment: IP accumulation assay, co-transfected Gα16, NPR-1; set-up: expressed in transfected cells; host or cells: HEK293; details: 1 h, HBSS + 20 mM LiCl, HEK293 receptor + Gα16, HTRF IP-One, mean of >=3 independent experiments
T3 sequence (Q18534 1-457): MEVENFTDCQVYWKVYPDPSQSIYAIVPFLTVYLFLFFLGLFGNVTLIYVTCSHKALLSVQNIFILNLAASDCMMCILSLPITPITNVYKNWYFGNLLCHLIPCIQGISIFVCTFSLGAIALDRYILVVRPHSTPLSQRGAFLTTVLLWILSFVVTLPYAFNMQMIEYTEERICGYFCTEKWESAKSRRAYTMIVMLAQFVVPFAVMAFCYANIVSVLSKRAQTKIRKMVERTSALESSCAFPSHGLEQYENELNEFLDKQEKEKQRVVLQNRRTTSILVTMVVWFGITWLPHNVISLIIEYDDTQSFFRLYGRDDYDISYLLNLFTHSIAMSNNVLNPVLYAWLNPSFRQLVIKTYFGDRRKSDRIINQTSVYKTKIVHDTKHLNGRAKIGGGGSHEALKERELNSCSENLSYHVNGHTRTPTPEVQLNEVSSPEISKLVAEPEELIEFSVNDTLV
Description: as §1, §2

[1] = 0.1 nM peptide (so in the source)

cAMP assay Gs, NPR-3 (NPR-3; 0.1 µM peptide): 0.86 x-fold of basal
cAMP assay Gs, NPR-3 (NPR-3; 10 µM peptide): 0.85 x-fold of basal
IP assay endog. Gαq + Gα16, NPR-11 (NPR-11; [1]): 1.04 x-fold of basal
IP assay endog. Gαq + Gα16, NPR-11 (NPR-11; 10 µM peptide): 0.84 x-fold of basal
IP assay endog. Gαq + Gα16, NPR-1 (NPR-1; [1]): 0.90 x-fold of basal
IP assay endog. Gαq + Gα16, NPR-1 (NPR-1; 10 µM peptide): 0.81 x-fold of basal
Substance: APKPKFIRF-NH2 [FLP-5-1, C. elegans FMRFamide-like peptide, C-terminally amidated, synthesized by SPPS]
